The values that follow come from patent US12544375B2, “Small molecule therapeutic for parkinson's disease paired with a biomarker of therapeutic activity” (The Board of Trustees of the Leland Stanford Junior …, priority 2019, dated 2026).

The target of this test is T1, DMiro (Drosophila melanogaster, UniProt Q8IMX7).
T1 construct: PD flies were fed with 2.5 μM Miro1 Reducer for the indicated time periods and lysed for blotting DMiro; from tissue; host or cells: whole flies (mutant LRRK2, PINK1 null) or heads (mutant SNCA flies)
T1 sequence (Q8IMX7 1-652): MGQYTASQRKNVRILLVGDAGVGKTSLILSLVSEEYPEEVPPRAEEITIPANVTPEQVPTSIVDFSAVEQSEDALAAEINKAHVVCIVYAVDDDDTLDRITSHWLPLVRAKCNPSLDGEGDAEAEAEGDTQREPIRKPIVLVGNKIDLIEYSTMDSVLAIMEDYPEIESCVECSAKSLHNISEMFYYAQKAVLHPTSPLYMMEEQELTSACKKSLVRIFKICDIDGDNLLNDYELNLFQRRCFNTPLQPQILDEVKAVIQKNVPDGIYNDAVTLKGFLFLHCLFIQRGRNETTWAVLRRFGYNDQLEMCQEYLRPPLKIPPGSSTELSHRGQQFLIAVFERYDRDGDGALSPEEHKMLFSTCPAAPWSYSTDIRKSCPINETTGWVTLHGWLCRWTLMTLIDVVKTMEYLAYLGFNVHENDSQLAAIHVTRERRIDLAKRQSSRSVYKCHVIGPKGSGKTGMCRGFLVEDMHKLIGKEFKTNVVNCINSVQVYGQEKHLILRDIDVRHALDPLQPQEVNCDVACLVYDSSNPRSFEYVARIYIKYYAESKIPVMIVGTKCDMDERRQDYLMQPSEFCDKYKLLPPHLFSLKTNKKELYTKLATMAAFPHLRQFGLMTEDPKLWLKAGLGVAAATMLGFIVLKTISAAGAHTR
Description: DMiro level in PD flies fed compound, Western blot. It is filed as in vivo, fly. To be noted: 2.5 μM, mutant LRRK2, PINK1 and SNCA flies. The method, then:
FIG. 8. Related to FIG. 2-4. Miro1 Reducer in Human Cell and Fly Models. (A) Fibroblasts from Healthy-1 and PD-2 were treated, lysed, and blotted as indicated. Band intensities are normalized to those of GAPDH from the same blots and compared to “Healthy-1, no treatment”. n=4 independent experiments. (B) Fibroblasts from PD-2 were treated and immunostained as indicated. The intensity was quantified for each cell across 264-320 cells from 3 independent experiments, compared to “no treatment”. (C) Fibroblasts were treated, immunoprecipitated (IPed) with anti-Miro1, and blotted as indicated. Similar results were observed twice. (D) Similar as in (C), fibroblasts were treated as indicated, and IPed with anti-Miro1. The GTPase activity of the IPed Miro1 protein was measured as described in Method. […] The MitoSox intensity was quantified for each cell across 106-161 cells from 3 coverslips. […] The TMRM intensity was measured for each cell across 48-60 cells from 3 independent experiments, and expressed as a fraction of the mean of “Healthy-1, no treatment”. […] The movement (the intensity of non-yellow) was quantified for each cell as described in (Tsai et al., 2014) across 22-31 cells from 3 transfections. […] (1) Left: The percentage of TH-positive iPSC-derived neurons out of total cells (Dapi-positive) is calculated after immunocytochemistry under 20× as described in FIG. 3. […]
In general terms: A western blot detects proteins with antibodies after separation by electrophoresis.

On to `O=C(Nc1ccc(Nc2cc(-n3ccnc3)ncn2)cc1)Nc1cccc(F)c1` [Miro1 Reducer], for which the “DMiro band intensity in PD flies” value is on record as “trend of DMiro reduction”.
